# Data reported in patent US20250320205A1, “STAT6 DEGRADERS” (Gilead Sciences, Inc., priority 2024, published 2025).
# System: Eotaxin-3 (CCL26) release
# Assay: Human Whole Blood Eotaxin-3 Assay (IL-4 stimulated)
# Assay type: cell-based
# Details: Homo sapiens; geometric mean across assay runs and compound batches; EC50 provided for test compounds with >80% Emax
# Method: This was a human whole blood assay using recombinant human Interleukin 4 to stimulate the blood and measuring the ability of the test compounds to inhibit eotaxin-3 release. The biological activities of the test compounds have been tested in human whole blood stimulated with IL-4 measuring Eotaxin-3 release. The test compounds were added to 384 well clear flat-bottom plate in a 4-fold serial dilution in triplicates using a liquid handler. Human whole blood stabilized in lithium-heparin tubes was added in a volume of 65 μL per well, resulting in a final DMSO concentration of 0.5%. The plate is incubated for 2 h at 37° C. under 5% CO2/95% air. Subsequently, 5 μL of recombinant human IL-4 (R&D Systems, cat #204-ILB) was added to the wells to a final concentration of 400 pM. The plate was incubated for 48 h at 37° C. under 5% CO2/95% air. The plate was spun down for 10 minutes at 500×g and 20 μL supernatant was harvested and transferred to a 384 well v-bottom plate using a liquid handler and stored at −20° C. until further analysis. 10 μL supernatant was used to measure the level of Eotaxin-3 (CCL26) using Human Eotaxin-3 MSD kit from Mesocsale (Cat #K251UEK-4). The assay was performed according to the manufacture instructions.
row,Structure (SMILES),EC50 [µM]
1,"C[C@@H](c1cc2c(-n3cc(F)c4c(c3=O)CCN4)ccnc2n1C)N1CC=C(c2c(F)cc(C(=O)N3CCn4nc(CN5CCC(c6ccc(NC7CCC(=O)NC7=O)cc6F)CC5)cc4C3)cc2F)CC1 (stereo partly drawn) [Example 2g3, 3-((4-(1-((5-(3,5-difluoro-4-(1-((S)-1-(4-(7-fluoro-4-oxo-1,2,3,4-tetrahydro-5H-pyrrolo [3,2-c]pyridin-5-yl)-1-methyl-1H-pyrrolo[2,3-b]pyridin-2-yl)ethyl)-1,2,3,6-tetrahydro-pyridin-4-yl)benzoyl)-4,5,6,7-tetrahydropyrazolo[1,5-a]pyrazin-2-yl)methyl)piperi-din-4-yl)-3-fluorophenyl)-amino)piperidine-2,6-dione]",0.0088
2,"CNc1ccn(-c2ccnc3c2cc([C@H](C)N2CC=C(c4c(C)cc(C(=O)N5CCn6c(nnc6C6CCN(Cc7ccc(NC8CCC(=O)NC8=O)c(OC)c7)CC6)C5)cc4F)CC2)n3C)c(=O)c1 (stereo partly drawn) [Example 2g9, 3-((4-((4-(7-(3-fluoro-5-methyl-4-(1-((S)-1-(1-methyl-4-(4-(methylamino)-2-oxo-pyridin-1(2H)-yl)-1H-pyrrolo [2,3-b]pyridin-2-yl)ethyl)-1,2,3,6-tetrahydropyridin-4-yl)benzoyl)-5,6,7,8-tetra-hydro[1,2,4]triazolo[4,3-a]pyrazin-3-yl)piperidin-1-yl)-methyl)-2-methoxyphenyl)-amino)-piperidine-2,6-dione]",0.803
3,"CNc1cc(=O)n(-c2ccnc3c2cc([C@@H](C)N2CCC(c4c(F)cc(C(=O)N5CCn6nc(CN7CCC(c8ccc(NC9CCC(=O)NC9=O)cc8F)CC7)cc6C5)cc4F)CC2)n3C)cc1F (stereo partly drawn) [Example 2g51, 3-((4-(1-((5-(3,5-difluoro-4-(1-((R)-1-(4-(5-fluoro-4-(methylamino)-2-oxopyridin-1(2H)-yl)-1-methyl-1H-pyrrolo[2,3-b]pyridin-2-yl)-ethyl)piperidin-4-yl)benzoyl)-4,5,6,7-tetrahydropyrazolo [1,5-a]pyrazin-2-yl)methyl)-piperidin-4-yl)-3-fluorophen-yl)amino)piperidine-2,6-dione]",0.0517
4,"CNc1cc(=O)n(-c2ccnc3c2cc([C@H](C)N2CC=C(c4c(C)cc(C(=O)N5CCC(CN6CCN(c7ncc(NC8CCC(=O)NC8=O)cc7F)CC6)CC5)cc4F)CC2)n3C)cc1F (stereo partly drawn) [Example 2g64, 3-((5-fluoro-6-(4-((1-(3-fluoro-4-(1-((S)-1-(4-(5-fluoro-4-(methylamino)-2-oxopyridin-1(2H)-yl)-1-meth-yl-1H-pyrrolo[2,3-b]pyridin-2-yl)ethyl)-1,2,3,6-tetrahydro-pyridin-4-yl)-5-methylbenzo-yl)piperidin-4-yl)methyl)-piperazin-1-yl)pyridin-3-yl)-amino)piperidine-2,6-dione]",0.0257
5,"CNc1ccn(-c2ccnc3c2cc([C@H](C)N2CC=C(c4c(C)cc(C(=O)N5CCC(CN6CCN(c7ccc(NC8CCC(=O)NC8=O)c(OC)c7)CC6)CC5)cc4F)CC2)n3C)c(=O)c1 (stereo partly drawn) [Example 2g125, 3-((4-(4-((1-(3-fluoro-5-meth-yl-4-(1-((S)-1-(1-methyl-4-(4-(methylamino)-2-oxopyridin-1(2H)-yl)-1H-pyrrolo[2,3-b]pyridin-2-yl)ethyl)-1,2,3,6-tetrahydropyridin-4-yl)benzo-yl)piperidin-4-yl)methyl)-piperazin-1-yl)-2-methoxy-phenyl)amino)piperidine-2,6-dione]",0.0129

# Continued by falling EC50, values first:
row,EC50 [µM],Structure (SMILES)
1,0.268,"Cc1cc(C(=O)N2CCC(CN3CCN(c4ccc(NC5CCC(=O)NC5=O)cc4F)CC3)CC2)cc(F)c1C1=CCN([C@@H](C)c2cc3c(-n4cc(F)c5c(c4=O)CCN5)ccnc3n2C)CC1 (stereo partly drawn) [Example 2g31, 3-((3-fluoro-4-(4-((1-(3-fluoro-4-(1-((S)-1-(4-(7-fluoro-4-oxo-1,2,3,4-tetra-hydro-5H-pyrrolo[3,2-c]pyridin-5-yl)-1-methyl-1H-pyrrolo[2,3-b]pyridin-2-yl)-ethyl)-1,2,3,6-tetrahydro-pyridin-4-yl)-5-methylbenzo-yl)-piperidin-4-yl)methyl)-piperazin-1-yl)phenyl)-amino)piperidine-2,6-dione]"
2,0.121,"CNc1cc(=O)n(-c2ccnc3c2cc([C@H](C)N2CC=C(c4c(C)cc(C(=O)N5CCn6nc(CN7CCC(c8cc(OC)c(NC9CCC(=O)NC9=O)cc8F)CC7)cc6C5)cc4F)CC2)n3C)cc1F (stereo partly drawn) [Example 2g50, 3-((5-fluoro-4-(1-((5-(3-fluoro-4-(1-((S)-1-(4-(5-fluoro-4-(methylamino)-2-oxopyridin-1(2H)-yl)-1-meth-yl-1H-pyrrolo[2,3-b]pyridin-2-yl)ethyl)-1,2,3,6-tetrahydro-hydropyridin-4-yl)-5-methyl-benzoyl)-4,5,6,7-tetrahydro-pyrazolo[1,5-a]pyrazin-2-yl)-methyl)piperidin-4-yl)-2-methoxyphenyl)amino)piperi-dine-2,6-dione]"
3,0.0364,"CNc1ccn(-c2ccnc3c2cc([C@H](C)N2CC=C(c4c(C)cc(C(=O)N5CCC(CN6CCN(c7cccc(C(=O)NC8CCC(=O)NC8=O)c7)CC6)CC5)cc4F)CC2)n3C)c(=O)c1 (stereo partly drawn) [Example 2g21, N-(2,6-dioxopiperidin-3-yl)-3-(4-((1-(3-fluoro-5-methyl-4-(1-((S)-1-(1-methyl-4-(4-(methylamino)-2-oxopyridin-1(2H)-yl)-1H-pyrrolo[2,3-b]pyridin-2-yl)ethyl)-1,2,3,6-tetrahydropyridin-4-yl)benzo-yl)piperidin-4-yl)methyl)-piperazin-1-yl)benzamide]"
4,0.0017,"CNc1nc(=O)n(-c2ccnc3c2cc([C@H](C)N2CC=C(c4c(C)cc(C(=O)N5CCn6nc(CN7CCC(c8ccc(NC9CCC(=O)NC9=O)c(OC)c8)CC7)cc6C5)cc4F)CC2)n3C)cc1F (stereo partly drawn) [Example 2g8, 3-((4-(1-((5-(3-fluoro-4-(1-((S)-1-(4-(5-fluoro-4-(meth-ylamino)-2-oxopyrimidin-1(2H)-yl)-1-methyl-1H-pyrrolo[2,3-b]pyridin-2-yl)-ethyl)-1,2,3,6-tetrahydro-pyridin-4-yl)-5-methylbenzo-yl)-4,5,6,7-tetrahydropyrazolo [1,5-a]pyrazin-2-yl)methyl)-piperidin-4-yl)-2-methoxy-phenyl)amino)-piperidine-2,6-dione]"
